Where a SMILES comes first, the peptide text is derived from it. Bridges are numbered along the chain shown (N, C = ends).
Biological target: ACE-2 (Homo sapiens, UniProt Q9BYF1)
Assay: Fluorometric ACE-2 inhibition assay with peptide M-2195 as substrate
Type: biochemical
Set-up: nucleotides corresponding to the extracellular domain (M1-S740); FLAG; made in house; host or cells: Sf9 insect cells, recombinant baculovirus (transfer vector pA2); enzyme purified from conditioned media
Conditions: ACE-2, M-2195 substrate
Experimental: Substrate stock (10 μL of 10× concentration) was added to each well to be tested in blocks of three vertically down the plate. The reaction was monitored on a Spectrafluor Plus (Tecan) at an excitation wavelength of 340 nm and an emission wavelength of 400 nm (+/−35 nm) every 30 seconds for a time period of 10 minutes.
ACE-2 cleaves off the C-terminal lysine from the peptide with a concomitant increase in fluorescence signal.
The assays were performed in 96-well clear-bottom black plates (Costar, 07-200-590). In each well, 0.45 μg (5 pmoles) of ACE-2 is added to 90 μL of an assay solution containing 100 mM TRIS at pH 7.4, 0.1% Tween, and 0.4% DMSO. Substrate stock at 10 μL of 10× concentration is added to each well (for example, 10 μL of 1 mM stock for a final 100 μM concentration). The reaction was monitored on a Spectrafluor Plus (Tecan) at an excitation wavelength of 340 nm and an emission wavelength of 400 nm (+/−35 nm) every 30 seconds up to 10 minutes. All samples were measured in triplicate. […]

Sequence of ACE-2 (Q9BYF1 18-740): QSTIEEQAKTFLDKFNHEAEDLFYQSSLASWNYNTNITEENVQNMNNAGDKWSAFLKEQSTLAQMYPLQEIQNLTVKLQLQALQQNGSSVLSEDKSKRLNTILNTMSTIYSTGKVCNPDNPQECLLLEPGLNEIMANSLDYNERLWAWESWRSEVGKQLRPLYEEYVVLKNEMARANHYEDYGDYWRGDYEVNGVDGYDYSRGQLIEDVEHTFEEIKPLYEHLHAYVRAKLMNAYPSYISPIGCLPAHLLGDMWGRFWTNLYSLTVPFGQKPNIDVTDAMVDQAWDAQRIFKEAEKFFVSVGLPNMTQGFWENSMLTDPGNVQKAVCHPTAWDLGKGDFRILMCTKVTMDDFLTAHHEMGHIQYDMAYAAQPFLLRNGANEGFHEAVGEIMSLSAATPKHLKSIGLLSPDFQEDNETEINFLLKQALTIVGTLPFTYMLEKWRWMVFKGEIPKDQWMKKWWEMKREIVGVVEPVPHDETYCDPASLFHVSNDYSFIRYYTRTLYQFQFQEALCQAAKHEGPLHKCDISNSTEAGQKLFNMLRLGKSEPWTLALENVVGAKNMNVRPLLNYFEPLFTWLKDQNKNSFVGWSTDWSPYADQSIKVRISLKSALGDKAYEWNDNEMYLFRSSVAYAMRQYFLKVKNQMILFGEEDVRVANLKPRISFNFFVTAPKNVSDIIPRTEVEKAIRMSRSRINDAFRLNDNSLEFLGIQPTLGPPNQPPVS

For `CSCC[C@@H]1NC(=O)[C@H](Cc2c[nH]c3ccccc23)NC(=O)[C@@H]2CCCN2C(=O)[C@H](CO)NC(=O)[C@H](CCC(N)=O)NC(=O)[C@H](CCCNC(=N)N)NC(=O)[C@H](CCC(N)=O)NC(=O)[C@@H]2CCCN2C(=O)[C@H](CCCCN)NC(=O)[C@@H](NC(=O)[C@H](Cc2c[nH]cn2)NC(=O)[C@H](CC(C)C)NC(=O)[C@H](CCCNC(=N)N)NC(=O)[C@H](CC(=O)O)NC(=O)CNC(C)=O)CSSC[C@@H](C(=O)N[C@@H](CCC(N)=O)C(=O)N[C@@H](Cc2c[nH]cn2)C(=O)N[C@@H](CC(C)C)C(=O)N[C@@H](CC(=O)O)C(=O)N2CCC[C@H]2C(=O)N[C@@H](CCC(=O)O)C(=O)NCC(=O)NCC(=O)NCC(N)=O)NC(=O)[C@H](CCCCN)NC1=O` [DX-512] (Ac-GDRLHCKPQRQSPWMKCQHLDPEGGG-NH2; disulfide 6-17), which Ki is on record?
The Ki was 150 nM.

`CC(=O)NCC(=O)N[C@@H](CC(=O)O)C(=O)N[C@@H](CC(C)C)C(=O)N[C@@H](Cc1c[nH]cn1)C(=O)N[C@@H](C)C(=O)N[C@H]1CSSC[C@@H](C(=O)N[C@H](C(=O)N[C@@H](CC(C)C)C(=O)NCC(=O)N[C@@H](CC(=O)O)C(=O)N2CCC[C@H]2C(=O)N[C@@H](CCC(=O)O)C(=O)NCC(=O)NCC(=O)NCC(N)=O)[C@@H](C)O)NC(=O)[C@H](C)NC(=O)[C@H](Cc2c[nH]c3ccccc23)NC(=O)[C@H](Cc2c[nH]c3ccccc23)NC(=O)[C@@H]2CCCN2C(=O)[C@H](CC(=O)O)NC(=O)CNC(=O)[C@H](CCCNC(=N)N)NC(=O)[C@H](C(C)C)NC(=O)[C@@H]2CCCN2C(=O)[C@H](CCCNC(=N)N)NC1=O` [DX-513] (Ac-GDLHACRPVRGDPWWACTLGDPEGGG-NH2; disulfide 6-17) was tested. Which Ki did it give?
The Ki was 150 nM.

Same assay, conditions: inhibition of ACE-2 activity, M-2195 substrate; class by % inhibition at ~100 μM and IC50

For `CSCC[C@@H]1NC(=O)[C@H](Cc2c[nH]c3ccccc23)NC(=O)[C@@H]2CCCN2C(=O)[C@H](CO)NC(=O)[C@H](CCC(N)=O)NC(=O)[C@H](CCCNC(=N)N)NC(=O)[C@H](CCC(N)=O)NC(=O)[C@@H]2CCCN2C(=O)[C@H](CCCCN)NC(=O)[C@@H](NC(=O)[C@H](Cc2c[nH]cn2)NC(=O)[C@H](CC(C)C)NC(=O)[C@H](CCCNC(=N)N)NC(=O)[C@H](CC(=O)O)NC(=O)CNC(C)=O)CSSC[C@@H](C(=O)N[C@@H](CCC(N)=O)C(=O)N[C@@H](Cc2c[nH]cn2)C(=O)N[C@@H](CC(C)C)C(=O)N[C@@H](CC(=O)O)C(=O)N2CCC[C@H]2C(=O)N[C@@H](CCC(=O)O)C(=O)NCC(=O)NCC(=O)NCC(N)=O)NC(=O)[C@H](CCCCN)NC1=O` [DX-512] (Ac-GDRLHCKPQRQSPWMKCQHLDPEGGG-NH2; disulfide 6-17), which Inhibition is on record?
Its Inhibition is “++++ (signifies very strong inhibition (˜100% inhibition at 100 μM; with IC50 0.15 μM))”.

`CC(=O)NCC(=O)N[C@@H](CC(=O)O)C(=O)N[C@@H](CC(C)C)C(=O)N[C@@H](Cc1c[nH]cn1)C(=O)N[C@@H](C)C(=O)N[C@H]1CSSC[C@@H](C(=O)N[C@H](C(=O)N[C@@H](CC(C)C)C(=O)NCC(=O)N[C@@H](CC(=O)O)C(=O)N2CCC[C@H]2C(=O)N[C@@H](CCC(=O)O)C(=O)NCC(=O)NCC(=O)NCC(N)=O)[C@@H](C)O)NC(=O)[C@H](C)NC(=O)[C@H](Cc2c[nH]c3ccccc23)NC(=O)[C@H](Cc2c[nH]c3ccccc23)NC(=O)[C@@H]2CCCN2C(=O)[C@H](CC(=O)O)NC(=O)CNC(=O)[C@H](CCCNC(=N)N)NC(=O)[C@H](C(C)C)NC(=O)[C@@H]2CCCN2C(=O)[C@H](CCCNC(=N)N)NC1=O` [DX-513] (Ac-GDLHACRPVRGDPWWACTLGDPEGGG-NH2; disulfide 6-17) was tested. Which Inhibition did it give?
Its Inhibition is “++++ (signifies very strong inhibition (˜100% inhibition at 100 μM; with IC50 0.15 μM))”.

Which Inhibition does the source give for `CC[C@H](C)[C@H](NC(=O)[C@H](CCCNC(=N)N)NC(=O)[C@H](CO)NC(=O)CNC(C)=O)C(=O)NCC(=O)N[C@H]1CSSC[C@@H](C(=O)N[C@@H](CC(N)=O)C(=O)N[C@@H](Cc2c[nH]c3ccccc23)C(=O)N[C@@H](Cc2c[nH]c3ccccc23)C(=O)N[C@@H](C)C(=O)N2CCC[C@H]2C(=O)NCC(=O)N[C@@H](CCC(=O)O)C(=O)NCC(=O)NCC(=O)NCC(N)=O)NC(=O)[C@H](CCCNC(=N)N)NC(=O)[C@H](CO)NC(=O)[C@H](CC(=O)O)NC(=O)[C@H](CCCNC(=N)N)NC1=O` [DX-524] (Ac-GSRIGCRDSRCNWWAPGEGGG-NH2; disulfide 6-11) here?
The Inhibition was “+++ (signifies strong inhibition (˜99% inhibition at ˜100 μM; with IC50 between 0.4-1 μM))”.

For `CC(=O)NCC(=O)N[C@@H](CO)C(=O)N[C@@H](CCCNC(=N)N)C(=O)NCC(=O)N[C@@H](Cc1ccccc1)C(=O)N[C@H]1CSSC[C@@H](C(=O)N[C@@H](CO)C(=O)N[C@@H](Cc2ccccc2)C(=O)N2CCC[C@H]2C(=O)N[C@@H](C)C(=O)N2CCC[C@H]2C(=O)NCC(=O)N[C@@H](CCC(=O)O)C(=O)NCC(=O)NCC(=O)NCC(N)=O)NC(=O)[C@H](CO)NC(=O)[C@H](CO)NC(=O)[C@H](CC(=O)O)NC(=O)[C@H](CCCNC(=N)N)NC1=O` [DX-525] (Ac-GSRGFCRDSSCSFPAPGEGGG-NH2; disulfide 6-11), which Inhibition is on record?
Its Inhibition is “+++ (signifies strong inhibition (˜99% inhibition at ˜100 μM; with IC50 between 0.4-1 μM))”.

With `CSCC[C@@H]1NC(=O)[C@H](CCSC)NC(=O)[C@@H]2CCCN2C(=O)[C@H](C)NC(=O)[C@H](Cc2c[nH]c3ccccc23)NC(=O)[C@H](Cc2c[nH]cn2)NC(=O)[C@@H](NC(=O)[C@@H](NC(=O)[C@H](CCC(=O)O)NC(=O)[C@H](Cc2c[nH]c3ccccc23)NC(=O)CNC(=O)[C@H](C)NC(C)=O)C(C)C)CSSC[C@@H](C(=O)N[C@@H](CCCCN)C(=O)N[C@@H](Cc2c[nH]cn2)C(=O)NCC(=O)NCC(=O)N[C@H](C(=O)N[C@@H](CCC(=O)O)C(=O)NCC(=O)NCC(=O)NCC(N)=O)[C@@H](C)O)NC1=O` [DX-529] (Ac-AGWEVCHWAPMMCKHGGTEGGG-NH2; disulfide 6-13) as the compound, how does the Inhibition read?
Its Inhibition is “+++ (signifies strong inhibition (˜99% inhibition at ˜100 μM; with IC50 between 0.4-1 μM))”.

Which Inhibition does the source give for `CC(=O)N[C@@H](C)C(=O)NCC(=O)N[C@@H](CO)C(=O)N[C@@H](CC(=O)O)C(=O)N[C@@H](Cc1c[nH]c2ccccc12)C(=O)N[C@H]1CSSC[C@@H](C(=O)N[C@@H](Cc2ccccc2)C(=O)N[C@@H](Cc2c[nH]cn2)C(=O)N[C@@H](CCC(N)=O)C(=O)NCC(=O)N[C@H](C(=O)N[C@@H](CCC(=O)O)C(=O)NCC(=O)NCC(=O)NCC(N)=O)[C@@H](C)O)NC(=O)[C@@H]2CCCN2C(=O)[C@H](CC(N)=O)NC(=O)[C@H](CC(N)=O)NC(=O)[C@H](Cc2c[nH]c3ccccc23)NC(=O)[C@H]([C@@H](C)O)NC(=O)CNC1=O` [DX-531] (Ac-AGSDWCGTWNNPCFHQGTEGGG-NH2; disulfide 6-13) here?
The Inhibition was “+++ (signifies strong inhibition (˜99% inhibition at ˜100 μM; with IC50 between 0.4-1 μM))”.

Which Inhibition does the source give for `CC(=O)NCC(=O)N[C@@H](CC(=O)O)C(=O)N[C@@H](CCCNC(=N)N)C(=O)N[C@@H](Cc1ccc(O)cc1)C(=O)N[C@@H](CC(C)C)C(=O)N[C@H]1CSSC[C@@H](C(=O)N[C@@H](CC(N)=O)C(=O)N[C@@H](Cc2c[nH]c3ccccc23)C(=O)N[C@@H](Cc2ccccc2)C(=O)N[C@@H](CC(=O)O)C(=O)N2CCC[C@H]2C(=O)N[C@@H](CCC(=O)O)C(=O)NCC(=O)NCC(=O)NCC(N)=O)NC(=O)[C@H](Cc2ccccc2)NC(=O)[C@H](CCCCN)NC(=O)[C@H](Cc2c[nH]c3ccccc23)NC(=O)[C@@H]2CCCN2C(=O)[C@H](CCCCN)NC(=O)[C@H](CC(=O)O)NC(=O)[C@H](CCCNC(=N)N)NC(=O)[C@H](CCC(N)=O)NC(=O)[C@@H]2CCCN2C(=O)[C@H](CC(C)C)NC1=O` [DX-599] (Ac-GDRYLCLPQRDKPWKFCNWFDPEGGG-NH2; disulfide 6-17) here?
The Inhibition was “++++ (signifies very strong inhibition (˜100% inhibition at 100 μM; with IC50 0.15 μM))”.

Which Inhibition does the source give for `CC(=O)NCC(=O)N[C@@H](CC(=O)O)C(=O)N[C@@H](Cc1ccc(O)cc1)C(=O)N[C@@H](CO)C(=O)N[C@@H](Cc1c[nH]cn1)C(=O)N[C@H]1CSSC[C@@H](C(=O)N[C@H](C(=O)N[C@@H](Cc2ccc(O)cc2)C(=O)N2CCC[C@H]2C(=O)N[C@@H](CC(=O)O)C(=O)N2CCC[C@H]2C(=O)N[C@@H](CCC(=O)O)C(=O)NCC(=O)NCC(=O)NCC(N)=O)[C@@H](C)O)NC(=O)[C@H](CCCCN)NC(=O)[C@H](Cc2c[nH]c3ccccc23)NC(=O)[C@H](Cc2c[nH]c3ccccc23)NC(=O)[C@@H]2CCCN2C(=O)[C@H](Cc2ccc(O)cc2)NC(=O)[C@H](Cc2ccc(O)cc2)NC(=O)[C@H](CCCNC(=N)N)NC(=O)[C@H](CC(C)C)NC(=O)[C@@H]2CCCN2C(=O)[C@H](CO)NC1=O` [DX-600] here?
Its Inhibition is “++++ (signifies very strong inhibition (˜100% inhibition at 100 μM; with IC50 0.15 μM))”.

How did the Inhibition turn out when `CC[C@H](C)[C@@H]1NC(=O)[C@@H]2CCCN2C(=O)[C@H](CO)NC(=O)[C@@H](NC(=O)[C@@H](NC(=O)[C@H](Cc2ccccc2)NC(=O)CNC(=O)[C@H](CC(=O)O)NC(=O)CNC(C)=O)[C@@H](C)O)CSSC[C@@H](C(=O)N[C@@H](CC(=O)O)C(=O)N[C@@H](CC(C)C)C(=O)NCC(=O)N[C@@H](CC(=O)O)C(=O)N2CCC[C@H]2C(=O)N[C@@H](CCC(=O)O)C(=O)NCC(=O)NCC(=O)NCC(N)=O)NC(=O)[C@H](CCCNC(=N)N)NC(=O)[C@H](Cc2ccccc2)NC(=O)[C@H](Cc2c[nH]c3ccccc23)NC(=O)[C@@H]2CCCN2C(=O)[C@H](Cc2ccccc2)NC(=O)[C@H](CCSC)NC(=O)[C@H](CCCNC(=N)N)NC1=O` [DX-601] (Ac-GDGFTCSPIRMFPWFRCDLGDPEGGG-NH2; disulfide 6-17) was run?
Its Inhibition is “++++ (signifies very strong inhibition (˜100% inhibition at 100 μM; with IC50 0.15 μM))”.

With `CC(=O)NCC(=O)N[C@@H](CC(=O)O)C(=O)N[C@@H](Cc1ccccc1)C(=O)N[C@@H](CO)C(=O)N1CCC[C@H]1C(=O)N[C@H]1CSSC[C@@H](C(=O)N2CCC[C@H]2C(=O)N[C@@H](CO)C(=O)NCC(=O)N[C@@H](CC(=O)O)C(=O)N2CCC[C@H]2C(=O)N[C@@H](CCC(=O)O)C(=O)NCC(=O)NCC(=O)NCC(N)=O)NC(=O)[C@H](C(C)C)NC(=O)[C@H](Cc2c[nH]c3ccccc23)NC(=O)[C@H](Cc2c[nH]c3ccccc23)NC(=O)[C@@H]2CCCN2C(=O)[C@H](CO)NC(=O)[C@H](Cc2c[nH]cn2)NC(=O)[C@H](CCCNC(=N)N)NC(=O)[C@H](CC(C)C)NC(=O)[C@H](C)NC(=O)[C@H](CCCCN)NC1=O` [DX-602] (Ac-GDFSPCKALRHSPWWVCPSGDPEGGG-NH2; disulfide 6-17) as the compound, how does the Inhibition read?
Its Inhibition is “++++ (signifies very strong inhibition (˜100% inhibition at 100 μM; with IC50 0.15 μM))”.

— patent US20030091557A1, “Methods and compositions for modulating ACE-2 activity” (priority 2001, published 2003)
